Common to all, as to test: inhibition of tumour cell growth, NCI panel, 48 h
In experiment [1] the test system is SK-MEL-2 melanoma.
Experiment [2] concerns OVCAR-8 ovarian.
Experiment [3] relates to OVCAR-3 ovarian.
In experiment [4] the test system is NCI-H23 lung.
The test system of experiment [5] is SN12C renal.
Experiment [6] has as its system M14 melanoma.
Experiment [7] concerns MDA-MB-435.
The subject of experiment [8] is COLO 205 colon.
Experiment [9] relates to NCI-H522 lung.
The subject of experiment [10] is PC-3 prostate.

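Protocol summary: plate cells (96-well), add compound at 5 concentrations, incubate 48 h, interpolate endpoints linearly. The concentration for 50% growth inhibition is given as GI50. TGI is the concentration that stops growth completely.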

Among the data in PubChem BioAssay (NCI) are GI50 and TGI values, retold here.

Consider `C[C@@H]1CCC2[C@@H](C)[C@@H](OCC(CO[C@H]3OC4O[C@@]5(C)CC[C@H]6[C@H](C)CCC([C@H]3C)[C@@]46OO5)OC(=O)CCC(=O)O)OC3O[C@@]4(C)CC[C@@H]1[C@]32OO4` (stereo not given in full), for which the GI50 in experiment [1] was 4.22 µM; in [2] it was 0.511 µM; in experiment [3], 0.02 µM; in [4] it was 0.0101 µM; in [5], 0.374 µM; in experiment [6], 4.05 µM. The GI50 is less than 0.0115 µM in experiment [7], less than 0.01 µM in experiment [8], 0.0628 µM in [9] and less than 0.01 µM in [10]. Also, the TGI in experiment [1] was more than 51.6 µM; in experiment [2] it was 27.2 µM; in experiment [3], 15.8 µM; in experiment [4], 11.3 µM; in experiment [5], 23.4 µM; in experiment [6], 26.9 µM. Further, the TGI is 13 µM in experiment [7], 12.5 µM in [8], 15.4 µM in experiment [9] and 14.7 µM in experiment [10].
With `CC(=O)OC1=CC(n2cc(F)c(=O)[nH]c2=O)OC(C)C1=O` (stereo not given), the TGI in [1], in [2], in [3], in [4], in [5] and in experiment [6] was more than 100 µM each time. The TGI in experiment [7], in experiment [8], in [9] and in experiment [10] was more than 100 µM in each case.
With `N#CC(C#N)=CNC(N)=S`, the TGI in experiment [1], in [2], in [3], in experiment [4], in experiment [5] and in [6] was more than 100 µM each time. The TGI in [7], in experiment [8], in [9] and in [10] was more than 100 µM in each case.
As to `NS(=O)(=O)c1cc(Br)c(N=Nc2ccc(O)c3ncccc23)c(Br)c1`, the TGI in experiment [1] is more than 100 µM; in experiment [2] it was more than 100 µM; in experiment [3] it was more than 100 µM; in experiment [4], more than 100 µM; in experiment [5], more than 100 µM; in experiment [6] it was 76.8 µM. For the same compound, the TGI in experiment [7], in [8], in experiment [9] and in experiment [10] was more than 100 µM throughout.
As for `CC1(C)C2CCC(=O)C1CC2` (stereo not given), the TGI in experiment [1], in experiment [2], in experiment [3], in [4], in experiment [5] and in experiment [6] was more than 100 µM each time. The TGI in experiment [7], in experiment [8], in [9] and in experiment [10] was more than 100 µM each time.
On to `OCc1ccc(-c2ccc(-c3ccc(CO)s3)o2)s1`, for which the TGI in [1] was 89.2 µM; in experiment [2], 61.4 µM; in experiment [3], 0.791 µM; in experiment [4], more than 90.9 µM; in experiment [5] it was 81 µM; in experiment [6] it was more than 84.3 µM. Besides, the TGI was 17.3 µM in experiment [7], 3.01 µM in experiment [8], more than 100 µM in [9] and more than 100 µM in experiment [10].
With `COC1=CC(=O)C(C2CC(=O)c3c(O)cc(O)cc3O2)=CC1=O` (stereo not given), the TGI amounted to 34.4 µM in experiment [1]; 59.7 µM in experiment [2]; 39.9 µM in experiment [3]; 40.5 µM in [4]; 37.4 µM in experiment [5]; 35.1 µM in [6]. The TGI in [7] was 31.6 µM; in experiment [8] it was 32.3 µM; in [9], 30.8 µM; in [10] it was 31.1 µM.
Turning to `Cn1cnc([N+](=O)[O-])c1S(=O)(=O)Oc1cccc2ccccc12`, the GI50 is 4.42 µM in experiment [1]; 4.62 µM in experiment [2]; 1.89 µM in [3]; 10 µM in experiment [4]; 5.71 µM in experiment [5]; 3.17 µM in experiment [6]. For the same compound, the GI50 in experiment [7] was 2.31 µM; in experiment [8], 1.06 µM; in [9], 0.271 µM; in experiment [10], 8.43 µM. For the same compound, the TGI worked out at 20 µM in experiment [1]; 18.7 µM in experiment [2]; 3.96 µM in [3]; 32.1 µM in experiment [4]; 20.5 µM in experiment [5]; 10.2 µM in [6]. Also, the TGI worked out at 7.21 µM in [7], 2.64 µM in [8], 1.18 µM in experiment [9] and 44.4 µM in [10].
